In patent publication US8609836B2, “4-aryl-2-anilino-pyrimidines” (Janssen Pharmaceutica NV, priority 2008, dated 2013):

Experiments:
PLK2 (h) = PLK2 (h) (Homo sapiens, UniProt Q9NYY3); assay: PLK2 human kinase inhibition, SPA; format: biochemical; settings: read-out: PLK2 pIC50 (converted)
Outline: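 33P incorporation into a biotinylated peptide (2 μM) was captured on streptavidin PVT beads and imaged on Leadseeker. Enzyme at 30 μg/ml, ATP 0.1 μM with 2 nM [γ-33P]ATP, Hepes pH 8.0 with MnCl2 and DTT. Incubation was 20 min at room temperature.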

PLK3 (h) = PLK3 (h) (Homo sapiens, UniProt Q9H4B4); assay: PLK3 human kinase inhibition, SPA; format: biochemical; settings: read-out: PLK3 pIC50 (converted)
PLK3 (h), sequence (Q9H4B4 whole entry): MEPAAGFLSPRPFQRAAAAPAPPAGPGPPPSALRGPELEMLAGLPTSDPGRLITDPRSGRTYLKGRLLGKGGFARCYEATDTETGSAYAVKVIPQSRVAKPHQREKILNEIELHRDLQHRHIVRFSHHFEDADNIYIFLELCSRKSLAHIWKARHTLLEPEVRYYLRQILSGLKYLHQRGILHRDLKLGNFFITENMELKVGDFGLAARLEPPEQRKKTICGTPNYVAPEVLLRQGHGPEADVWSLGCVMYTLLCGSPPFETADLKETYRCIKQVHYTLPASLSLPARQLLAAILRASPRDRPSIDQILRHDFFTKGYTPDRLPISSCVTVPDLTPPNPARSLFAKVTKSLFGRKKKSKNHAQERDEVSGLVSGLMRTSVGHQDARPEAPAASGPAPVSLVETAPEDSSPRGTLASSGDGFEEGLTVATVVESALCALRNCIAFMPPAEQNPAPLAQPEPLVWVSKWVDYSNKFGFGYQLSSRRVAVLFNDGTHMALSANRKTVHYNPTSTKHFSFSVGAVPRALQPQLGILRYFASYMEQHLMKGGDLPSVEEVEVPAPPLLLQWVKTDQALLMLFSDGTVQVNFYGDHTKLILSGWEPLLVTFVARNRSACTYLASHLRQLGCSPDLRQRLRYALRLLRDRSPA
Outline: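 Radiometric scintillation proximity format at pH 8.0 (Hepes, MnCl2, DTT). The 2 μM biotin-peptide substrate is phosphorylated by PLK3 (h) (30 μg/ml) using 0.1 μM ATP traced with 33P, for 20 min at room temperature. EDTA stop; phosphopeptide captured on streptavidin beads and imaged.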

U87-MG = assay: Cellular proliferation assay (Alamar blue), U87-MG; format: cell-based; settings: Homo sapiens, U-87 MG; 10% FCS; 72 hours with compound; Alamar blue 6 h; read-out: U87-MG (cellular proliferation assay, Table 4) (converted)
Outline: (§1)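 After a 24 h compound-free attachment period, cells in 10% FCS medium are treated for 72 h at 37° C. Resazurin conversion is then quantified by fluorescence, with dye incubation lasting 4 h for HCT-116, 6 h for U87-MG and 24 h for A2780 or MDA-MB-231.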

A2780 = assay: Cellular proliferation assay (Alamar blue), A2780; format: cell-based; settings: Homo sapiens, 10% FCS, 72 hours with compound, Alamar blue 24 h, read-out: A2780 (cellular proliferation assay, Table 4) (converted)
Outline: as §1

MDA-MB-231 = assay: Cellular proliferation assay (Alamar blue), MDA-MB-231; format: cell-based; settings: Homo sapiens, 10% FCS, 72 hours with compound, Alamar blue 24 h, read-out: MDA/MB231 (cellular proliferation assay, Table 4) (converted)
Outline: as §1

PLK2 (h), sequence (Q9NYY3 whole entry): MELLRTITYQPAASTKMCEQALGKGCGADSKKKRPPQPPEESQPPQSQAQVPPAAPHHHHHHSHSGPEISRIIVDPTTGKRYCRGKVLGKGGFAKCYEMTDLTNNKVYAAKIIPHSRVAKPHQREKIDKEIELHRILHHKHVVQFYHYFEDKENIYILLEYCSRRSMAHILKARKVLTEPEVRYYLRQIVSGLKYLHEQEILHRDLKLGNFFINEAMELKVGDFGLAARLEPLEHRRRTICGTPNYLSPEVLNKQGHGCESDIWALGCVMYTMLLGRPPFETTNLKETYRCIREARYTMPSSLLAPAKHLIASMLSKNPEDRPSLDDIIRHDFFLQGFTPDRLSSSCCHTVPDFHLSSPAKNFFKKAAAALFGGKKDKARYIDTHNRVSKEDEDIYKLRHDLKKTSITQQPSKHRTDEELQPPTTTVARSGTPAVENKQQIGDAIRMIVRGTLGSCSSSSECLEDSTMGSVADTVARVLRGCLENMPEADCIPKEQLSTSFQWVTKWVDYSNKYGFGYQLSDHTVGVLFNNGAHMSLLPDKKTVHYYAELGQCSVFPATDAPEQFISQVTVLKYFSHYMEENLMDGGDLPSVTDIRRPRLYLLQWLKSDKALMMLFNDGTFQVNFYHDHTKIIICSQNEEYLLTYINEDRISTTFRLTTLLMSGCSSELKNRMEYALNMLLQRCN

Compound | IC50 (PLK2 (h)) [µM] | IC50 (PLK3 (h)) [µM] | IC50 (U87-MG) [µM] | IC50 (A2780) [µM] | IC50 (MDA-MB-231) [µM]
C[C@@H]1NCc2ccc(cc2)Nc2nccc(n2)-c2cccc(c2)CNC1=O [Compound 190] | > 10 | > 10 | > 10 | > 10 | > 10
O=C1NCc2cccc(c2)-c2ccnc(n2)Nc2ccc(cc2)CN[C@H]1Cc1ccccc1 [Compound 192] | > 10 | > 10 | > 10 | > 10 | > 10
O=C1CN2CCN(CC2)Cc2ccc(cc2)Nc2nccc(n2)-c2cccc(c2)CN1 [Compound 193] | > 10 | > 10 | > 10 | > 10 | > 10
O=C1CN2CCN(CC2)Cc2cc(ccc2N2CCOCC2)Nc2nccc(n2)-c2ccc(cc2)CN1 [Compound 194] | > 10 | > 10 | > 10 | > 10 | > 10

Results, then the molecule that gave them:

IC50 (PLK2 (h)) [µM] | IC50 (PLK3 (h)) [µM] | IC50 (U87-MG) [µM] | IC50 (A2780) [µM] | IC50 (MDA-MB-231) [µM] | Compound
> 10 | > 10 | > 10 | > 10 | > 10 | O=C1CN2CCN(CC2)Cc2ccc(Cl)c(c2)Nc2nccc(n2)-c2cccc(c2)CN1 [Compound 195]
> 10 | > 10 | > 10 | > 10 | > 10 | O=C1CN2CCN(CC2)Cc2cccc(c2)Nc2nccc(n2)-c2cccc(c2)CN1 [Compound 196]
